Entries after “also recorded” stand apart in the source; their conditions may differ. Where two headings read alike, the source gives them in different places.
Legend:
[1] = for mean AUCmetabolite/AUCparent ratio, fold higher in CYP3A5 expressors than nonexpressors: blood, after oral tacrolimus; for CLurinary (based on AUCblood) / CLurinary (based on AUCplasma): 0 to 96-hour collection; for total amount of tacrolimus excreted in urine as unchanged drug over 96 hours: oral administration
[2] = system: mouse mixed lymphocyte reaction; details: compared with tacrolimus; cited from earlier work
CYP3A5 [3] = target: CYP3A5 (Homo sapiens, UniProt P20815); assay: Metabolic clearance by CYP3A5; details: compared with tacrolimus; Supplemental Figure 1
Sequence of CYP3A5 (Homo sapiens, UniProt P20815) (P20815 whole entry, the tested form may be a part): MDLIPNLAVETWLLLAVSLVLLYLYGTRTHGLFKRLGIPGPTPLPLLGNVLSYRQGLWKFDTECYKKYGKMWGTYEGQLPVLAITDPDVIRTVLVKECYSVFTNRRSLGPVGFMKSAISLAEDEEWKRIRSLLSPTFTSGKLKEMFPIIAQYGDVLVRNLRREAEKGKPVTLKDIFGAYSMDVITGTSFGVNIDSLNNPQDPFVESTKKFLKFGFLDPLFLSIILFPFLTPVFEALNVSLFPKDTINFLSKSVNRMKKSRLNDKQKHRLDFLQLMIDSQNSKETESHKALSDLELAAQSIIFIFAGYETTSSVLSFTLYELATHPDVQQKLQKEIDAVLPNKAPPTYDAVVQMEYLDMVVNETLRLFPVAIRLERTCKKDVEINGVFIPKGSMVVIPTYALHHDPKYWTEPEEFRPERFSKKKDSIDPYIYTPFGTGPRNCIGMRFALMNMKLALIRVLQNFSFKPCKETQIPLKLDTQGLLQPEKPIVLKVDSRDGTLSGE

[4] = isolated perfused rat kidney; cited from earlier work
CYP3A5 [5] = details: cited from earlier work
[6] = parameters: species or system human; details: for k(2,1) (glomerular filtration of tacrolimus) / k(3,1) (secretion from efferent arteriole to renal epithelium): derived from estimated parameters; for fub (exchangeable fraction of tacrolimus in blood during glomerular filtration): ordinary least-squares estimation; for Kp: human, kidney/blood, oral, 5 mg, Kp,kidney (apparent tissue-to-blood partitioning coefficient), empirical Bayesian estimation
[7] = In vitro unbound fraction of tacrolimus in plasma and whole blood; type: in vitro ADME; details: whole blood
[8] = male rats, tacrolimus orally for four days; cited from earlier work
clinical = details: human, 5 mg; for half-life: blood, po, single oral dose 5 mg; for concentration at 96 h: whole blood, oral, Clast, blood concentration at 96 hour

C=CCC1C=C(C)CC(C)CC(OC)C2OC(O)(C(=O)C(=O)N3CCCCC3C(=O)OC(C(C)=CC3CCC(O)C(OC)C3)C(C)C(O)CC1=O)C(C)CC2O (centres unmarked) [13-DMT, 13-O-desmethyl tacrolimus]
mean AUCmetabolite/AUCparent ratio, fold higher in CYP3A5 expressors than nonexpressors [1]: 2.0 fold

C=CCC1C=C(C)CC(C)CC(O)C2OC(O)(C(=O)C(=O)N3CCCCC3C(=O)OC(C(C)=CC3CCC(O)C(OC)C3)C(C)C(O)CC1=O)C(C)CC2OC (centres unmarked) [15-DMT, 15-O-desmethyl tacrolimus]
renal excretion in the two genotyped groups ([1]; CYP3A5 expressors vs nonexpressors): similar
mean AUCmetabolite/AUCparent ratio, fold higher in CYP3A5 expressors than nonexpressors [1]: did not differ; also recorded: similar

C=CCC1C=C(C)CC(C)CC(OC)C2OC(O)(C(=O)C(=O)N3CCCCC3C(=O)OC(C(C)=CC3CCC(O)C(O)C3)C(C)C(O)CC1=O)C(C)CC2OC (centres unmarked) [31-DMT, 31-O-desmethyl tacrolimus]
mean AUCmetabolite/AUCparent ratio, fold higher in CYP3A5 expressors than nonexpressors [1]: 2.5 fold
immunosuppressive activity [2]: same immunosuppressive activity as tacrolimus
metabolic clearance by CYP3A5 (CYP3A5 [3]): comparable to that of tacrolimus

CCOC(=O)[C@H](CCc1ccccc1)N[C@@H](C)C(=O)N1CCC[C@H]1C(=O)O [enalapril]
urinary clearance following inhibition of hydrolysis to enalaprilate by paraoxon [4]: increased

Cc1ncc2n1-c1ccc(Cl)cc1C(c1ccccc1F)=NC2 [midazolam]
hydroxylation activity, fold higher in CYP3A5*1/*3 than CYP3A5*3/*3 kidney microsomes (CYP3A5 [5]): 18 fold

C=CC[C@@H]1/C=C(\C)C[C@H](C)C[C@H](OC)[C@H]2O[C@@](O)(C(=O)C(=O)N3CCCC[C@H]3C(=O)O[C@H](/C(C)=C/[C@@H]3CC[C@@H](O)[C@H](OC)C3)[C@H](C)[C@@H](O)CC1=O)[C@H](C)C[C@@H]2OC [tacrolimus]
ER greater than fub′ [6]: ~ 400 fold
ER (extraction ratio of tacrolimus from the efferent arteriole) ([6]; CYP3A5 expressors): 5.1 ± 3.0%
k(0,3) (rate constant, CYP3A5-mediated intra-epithelial metabolism) ([6]; CYP3A5 expressors): 0.55 ± 0.52 h⁻¹
k(1,3) (back flux from renal epithelium to efferent arteriole) ([6]; CYP3A5 expressors): 0.34 ± 0.05 h⁻¹
k(2,3) (secretion from renal epithelium to tubular lumen) ([6]; CYP3A5 expressors): 0.0009 ± 0.0005 h⁻¹
k(3,2) (reabsorption from tubular fluid back to renal epithelium) ([6]; CYP3A5 expressors): 0.091 ± 0.063 h⁻¹
k(2,1) (glomerular filtration of tacrolimus) ([6]; CYP3A5 expressors): 0.94 ± 0.76 mL/h
k(3,1) (secretion from efferent arteriole to renal epithelium) ([6]; CYP3A5 expressors): 2368 ± 1404 mL/h
fub (exchangeable fraction of tacrolimus in blood during glomerular filtration) ([6]; CYP3A5 expressors): 0.014 ± 0.015%
ER (extraction ratio of tacrolimus from the efferent arteriole) ([6]; CYP3A5 nonexpressors): 4.3 ± 4.7%
k(1,3) (back flux from renal epithelium to efferent arteriole) ([6]; CYP3A5 nonexpressors): 0.36 ± 0.39 h⁻¹
k(2,3) (secretion from renal epithelium to tubular lumen) ([6]; CYP3A5 nonexpressors): 0.0012 ± 0.0008 h⁻¹
k(3,2) (reabsorption from tubular fluid back to renal epithelium) ([6]; CYP3A5 nonexpressors): 0.106 ± 0.057 h⁻¹
k(2,1) (glomerular filtration of tacrolimus) ([6]; CYP3A5 nonexpressors): 0.77 ± 0.51 mL/h
k(3,1) (secretion from efferent arteriole to renal epithelium) ([6]; CYP3A5 nonexpressors): 1800 ± 1734 mL/h
fub (exchangeable fraction of tacrolimus in blood during glomerular filtration) ([6]; CYP3A5 nonexpressors): 0.011 ± 0.006%
in vivo fub′ (exchangeable fraction in blood) estimated from modeling ([6]; all subjects): 0.012 ± 0.011%
Kp ([6]; CYP3A5 expressors): 12.1 ± 0.3
Kp ([6]; CYP3A5 nonexpressors): 23.4 ± 0.04
Kp,kidney in CYP3A5 expressors as % of that calculated for nonexpressors ([6]; steady-state tissue-to-blood partitioning ratio): ~50%
fraction unbound [7]: 0.00078 ± 0.00026
CLurinary (based on AUCblood) ([1]; CYP3A5 expressors (N=12)): 2.01 ± 0.57 mL/h
CLurinary (based on AUCplasma) ([1]; CYP3A5 expressors (N=12)): 50.15 ± 13.67 mL/h
CLurinary (based on AUCblood) ([1]; CYP3A5 nonexpressors (N=12)): 3.15 ± 1.69 mL/h
CLurinary (based on AUCplasma) ([1]; CYP3A5 nonexpressors (N=12)): 97.71 ± 59.89 mL/h
CLurinary/eGFR (based on AUCblood) ([1]; CYP3A5 expressors (N=12)): 0.028 ± 0.012%
CLurinary/eGFR (based on AUCplasma) ([1]; CYP3A5 expressors (N=12)): 0.58 ± 0.28%
total amount of tacrolimus excreted in urine as unchanged drug over 96 hours ([1]; CYP3A5 expressors): 271.6 ± 147.4 ng
CLurinary/eGFR (based on AUCblood) ([1]; CYP3A5 nonexpressors (N=12)): 0.048 ± 0.032%
CLurinary/eGFR (based on AUCplasma) ([1]; CYP3A5 nonexpressors (N=12)): 1.48 ± 1.10%
total amount of tacrolimus excreted in urine as unchanged drug over 96 hours ([1]; CYP3A5 nonexpressors): 642.6 ± 349.6 ng
mean apparent urinary tacrolimus clearance, lower in CYP3A5 expressors compared to nonexpressors ([1]; based on blood AUC): 36%
mean apparent urinary tacrolimus clearance, lower in CYP3A5 expressors compared to nonexpressors ([1]; based on plasma AUC): 49%
AUC0–96 Difference (%) ([1]; expressors vs nonexpressors): −35.2%
AUC0–inf Difference (%) ([1]; expressors vs nonexpressors): −36.5%
CL/F Difference (%) ([1]; expressors vs nonexpressors): 54.8%
CLurinary (based on AUCblood) Difference (%) ([1]; expressors vs nonexpressors): −36.2%
CLurinary (based on AUCplasma) Difference (%) ([1]; expressors vs nonexpressors): −48.7%
CLurinary/eGFR (based on AUCblood) Difference (%) ([1]; expressors vs nonexpressors): −41.7%
Clast Difference (%) ([1]; expressors vs nonexpressors): −46.2%
oral tacrolimus clearance (CL/F), fold higher in CYP3A5 expressors compared to nonexpressors ([1]; mean, expressors vs nonexpressors): 1.6 fold
Clast (blood concentration at 96 hours), fold higher in CYP3A5 nonexpressors compared to expressors ([1]; nonexpressors vs expressors): 1.9 fold
Kp,kid [8]: 12.2
half-life (clinical; t1/2, CYP3A5 expressors (N=12)): 29.9 ± 4.8 h
half-life (clinical; t1/2, CYP3A5 nonexpressors (N=12)): 31.7 ± 4.3 h
concentration at 96 h (clinical; CYP3A5 expressors (N=12)): 0.2 ± 0.1 ng/mL
concentration at 96 h (clinical; CYP3A5 nonexpressors (N=12)): 0.4 ± 0.1 ng/mL
hydroxylation activity, fold higher in CYP3A5*1/*3 than CYP3A5*3/*3 kidney microsomes (CYP3A5 [5]): 18 fold

Reference: paper PMC4038024 (Clinical pharmacology and therapeutics, 2012)
